Columns and labels:
Format in all cases: in vivo
wild-type mice = experiment: Morris Water Maze, wild-type mice; conditions: 12-month-old WT mice, 3 weeks, vs control WT mice
Source text: (§1) Impact of MitoQ in Wild-type and Transgenic Tau mice: The inventors investigated the protective effects of MitoQ and daily exercise in 12-month-old transgenic Tau (P301L strain) and age-matched wild-type mice. The purpose of this study was to assess the lifestyle factors (antioxidant-enriched diet) and physical exercise (Treadmill) effects on cognitive behavior and AD pathologies (Abeta, P-tau, mitochondrial and synaptic) in AD mice.
(§2) First, the inventors fed wild-type, Tau and APP/PS1 mice with (500 uM of MitoQ in drinking water) and physical exercise (30 minutes on Treadmill) for 3 weeks. The inventors used 12-month-old animals (n=7) per group for all treatments (WT-MitoQ, WT-Treadmill, WT-MitoQ+Treadmill), Tau (Tau-MitoQ, Tau-Treadmill,Tau-MitoQ+Treadmill) and APP/PS1 (APP/PS1-MitoQ, APP/PS1-Treadmill, APP/PS1-MitoQ+Treadmill). Age-matched control mice were used for all genotypes in these studies. After 3-weeks treatment, the cognitive behavior using Morris Water Maze test was assessed.
(§3) The inventors conducted 11 trials (4 training and 7 actual) for latency to find the platform for all groups of mice.

[1] = test system: transgenic Tau (P301L strain) mice; experiment: Morris Water Maze, transgenic Tau mice; conditions: 12-month-old Tau mice, 3 weeks
Source text: as §1, §2, §3

BACHD mice [2] = experiment: Gene/protein levels, dendritic spines and mitochondrial morphology in BACHD mice
Description: (§4) The inventors treated BACHD mice and non-transgenic wild-type mice with Mdivi-1 for six months. Behavioral analysis were performed using rotarod (motor coordination), open field (locomotor activity), Y-maze (working memory) and tail suspension (neurological phenotype) in both treated and untreated BACHD and non-transgenic wild-type (WT) mice. […] The inventors also completed studies on the cell and molecular biology aspects of mitochondria and mutant huntingtin experiments. And also completed experiments on mitochondrial morphology (number and length) dendritic spine density in Mdivi-1-treated and untreated BACHD and non-transgenic WT mice.
Mdivi-1-treated BACHD mice had increased dendritic spines in striatal, cortical and hippocampal tissues of Mdivi-1-treated BACHD mice relative Mdivi-1-untreated BACHD mice. Mdivi-1-treated BACHD mice had increased mitochondrial length and reduced the size of mitochondrial size.

BACHD mice [3] = experiment: Behavioral analysis in BACHD mice; conditions: BACHD mice treated for six months vs untreated BACHD mice
Description: Huntington's disease. To determine whether Mdivi1 reduces excessive mitochondrial fragmentation and enhances mitochondrial function and synaptic activity in bacterial artificial chromosome transgenic Huntington's disease (BACHD) mice.
as §4

[4] = treated vs untreated BACHD mice

Structure (SMILES)	latency to find the platform (wild-type mice; 500 uM in drinking water)	latency to find the platform (wild-type mice; MitoQ+Treadmill (30 minutes))	latency to reach platform ([1]; 500 uM in drinking water, vs MitoQ untreated Tau mice)	latency to reach platform ([1]; MitoQ+Treadmill, vs MitoQ+Treadmill untreated Tau mice)	dendritic spines (BACHD mice [2]; striatal, cortical and hippocampal tissues, treated vs untreated BACHD mice)	mitochondrial length (BACHD mice [2]; treated BACHD mice)	size of mitochondrial size (BACHD mice [2]; treated BACHD mice)	Mitochondrial biogenesis (PGC1a, Nrf1, Nrf2 and TFAM) genes (BACHD mice [2]; [4])	autophagy (LC3A, LC3B, ATG5, Beclin 1) genes (BACHD mice [2]; [4])	mRNA and protein levels of fission genes (Drp1 and Fis1) (BACHD mice [2]; [4])	mitochondrial fusion genes (Mfn1, Mfn2, and Opa1) (BACHD mice [2]; [4])	mitophagy (PINK1, TERT, BCL2, BNIP3L) genes (BACHD mice [2]; [4])	synaptic (synaptophysin, PSD95, DARPP32) genes (BACHD mice [2]; [4])	behavioral phenotype (rotarod, open field, Y-maze, tail suspension) (BACHD mice [3])
COC1=C(OC)C(=O)C(CCCCCCCCCC[P+](c2ccccc2)(c2ccccc2)c2ccccc2)=C(C)C1=O [MitoQ, Phosphonium, [10-(4,5-dimethoxy-2-methyl-3,6-dioxo-1,4-cyclohexadien-1-yl)decyl]triphenyl-, methanesulfonate]	did not show any significant difference	significantly faster	much quicker	significantly faster	–	–	–	–	–	–	–	–	–	–
COc1cc(-n2c(S)nc3ccccc3c2=O)c(Cl)cc1Cl [Mdivi-1, 3-(2,4-Dichloro-5-methoxyphenyl)-2,3-dihydro-2-thioxo-4(1H)-quinazolinone, 3-(2,4-Dichloro-5-methoxyphenyl)-2-sulfanyl-4(3H)-quinazolinone]	–	–	–	–	increased	increased	reduced	increased	increased	significantly reduced	significantly increased	increased	increased	significantly improved

Reference: patent publication US12208108B2, “Drug targets of delayed aging and human brain diseases” (Texas Tech University System, priority 2016, dated 2025)
